Columns and labels:
Assay in all cases: Test G: turf grass and weed postemergence plant response rating
Purple nutsedge = assay type: in vivo, Cyperus rotundus L.; conditions: Purple nutsedge, postemergence, greenhouse, three weeks, 0-100 scale
Excerpt: (§1) For all of the following biological tests, plant response ratings were based on a 0-100 scale where zero is growth equivalent to that of untreated plants (no plant response) and 100 represents no additional growth occurring after herbicide treatment.
(§2) Plants of the turf grass species: zoysia (Zoysia japonica Steud.), bermudagrass (Cynodon dactylon (L.) Pers.), tall fescue (Festuca arundinacea Shreib.), creeping bentgrass (Agrostis stoonoifera L.), perennial ryegrass (Lolium perenne L.) and hard fescue (Festuca species) were grown under greenhouse conditions for four months. Plants were clipped as needed to plant heights of 5-10 cm. Weeds typically found in turf: annual bluegrass (Poa annua L.), common chickweed (Stellaria media (L.) Vill.), large crabgrass (Digitaria sanguinales (L.) Scop.), dandelion (Taraxacum officinale Weber in Wiggers), goosegrass (Eleusine indica (L.) Gaertn.), henbit (Lamium amplexicaule L.), venice mallow (Hibiscus trionium L.) and purple nutsedge (Cyperus rotundus L.) were also grown under greenhouse conditions so that plants were 5-20 cm tall when they were treated. Herbicide mixtures were formulated, dissolved/dispersed in water containing 0.25% non-ionic surfactant, and sprayed postemergence to these turf grasses and weeds. Treated plants were grown under greenhouse conditions for three weeks before visual evaluations of plant responses were recorded.

Bermudagrass = assay type: in vivo, Cynodon dactylon (L.) Pers.; conditions: Bermudagrass, postemergence, greenhouse, three weeks, 0-100 scale
Excerpt: as §1
Plants of the turf grass species: zoysia (Zoysia japonica Steud.), bermudagrass (Cynodon dactylon (L.) Pers.), tall fescue (Festuca arundinacea Shreib.), creeping bentgrass (Agrostis stoonoifera L.), perennial ryegrass (Lolium perenne L.) and hard fescue (Festuca species) were grown under greenhouse conditions for four months. Plants were clipped as needed to plant heights of 5-10 cm. […] Herbicide mixtures were formulated, dissolved/dispersed in water containing 0.25% non-ionic surfactant, and sprayed postemergence to these turf grasses and weeds. Treated plants were grown under greenhouse conditions for three weeks before visual evaluations of plant responses were recorded.

Tall fescue = assay type: in vivo, Festuca arundinacea Shreib.; conditions: Tall fescue, postemergence, greenhouse, three weeks, 0-100 scale
Excerpt: as §1, §2

Hard fescue = assay type: in vivo, Festuca species; conditions: Hard fescue, postemergence, greenhouse, three weeks, 0-100 scale
Excerpt: as §1, §2

Dandelion = assay type: in vivo, Taraxacum officinale Weber in Wiggers; conditions: Dandelion, postemergence, greenhouse, three weeks, 0-100 scale
Excerpt: as §1, §2

Creeping bentgrass = assay type: in vivo, Agrostis stoonoifera L.; conditions: Creeping bentgrass, postemergence, greenhouse, three weeks, 0-100 scale
Excerpt: as §1, §2

Chickweed = assay type: in vivo, Stellaria media (L.) Vill.; conditions: Chickweed, postemergence, greenhouse, three weeks, 0-100 scale
Excerpt: as §1, §2

Annual bluegrass = assay type: in vivo, Poa annua L.; conditions: Annual bluegrass, postemergence, greenhouse, three weeks, 0-100 scale
Excerpt: as §1, §2

Henbit = assay type: in vivo, Lamium amplexicaule L.; conditions: Henbit, postemergence, greenhouse, three weeks, 0-100 scale
Excerpt: as §1, §2

Zoysia grass = assay type: in vivo, Zoysia japonica Steud.; conditions: Zoysia grass, postemergence, greenhouse, three weeks, 0-100 scale
Excerpt: as §1, §2

Goosegrass = assay type: in vivo, Eleusine indica (L.) Gaertn.; conditions: Goosegrass, postemergence, greenhouse, three weeks, 0-100 scale
Excerpt: as §1, §2

Venice mallow = assay type: in vivo, Hibiscus trionium L.; conditions: Venice mallow, postemergence, greenhouse, three weeks, 0-100 scale
Excerpt: as §1, §2

Perennial ryegrass = assay type: in vivo, Lolium perenne L.; conditions: Perennial ryegrass, postemergence, greenhouse, three weeks, 0-100 scale
Excerpt: as §1, §2

Large crabgrass = assay type: in vivo, Digitaria sanguinales (L.) Scop.; conditions: Large crabgrass, postemergence, greenhouse, three weeks, 0-100 scale
Excerpt: as §1, §2

[1] = herbicide 80 g ai/ha + Compound 1 125 g ai/ha

COc1cc(OC)nc(NC(=O)NS(=O)(=O)c2ncccc2C(=O)N(C)C)n1 [Nicosulfuron, nicosulfuron]
Observed Response, Herbicide mixture with Compound 1 (Purple nutsedge; [1]): 80 | Observed Response, Herbicide alone (Purple nutsedge; herbicide 80 g ai/ha): 80 | Observed Response, Herbicide mixture with Compound 1 (Bermudagrass; [1]): 0 | Observed Response, Herbicide alone (Bermudagrass; herbicide 80 g ai/ha): 0 | Observed Response, Herbicide mixture with Compound 1 (Tall fescue; [1]): 60 | Observed Response, Herbicide alone (Tall fescue; herbicide 80 g ai/ha): 60 | Observed Response, Herbicide mixture with Compound 1 (Hard fescue; [1]): 30 | Observed Response, Herbicide alone (Hard fescue; herbicide 80 g ai/ha): 60 | Observed Response, Herbicide mixture with Compound 1 (Dandelion; [1]): 100 | Observed Response, Herbicide alone (Dandelion; herbicide 80 g ai/ha): 100 | Observed Response, Herbicide mixture with Compound 1 (Creeping bentgrass; [1]): 88 | Observed Response, Herbicide alone (Creeping bentgrass; herbicide 80 g ai/ha): 80 | Observed Response, Herbicide mixture with Compound 1 (Chickweed; [1]): 100 | Observed Response, Herbicide alone (Chickweed; herbicide 80 g ai/ha): 100 | Observed Response, Herbicide mixture with Compound 1 (Annual bluegrass; [1]): 100 | Observed Response, Herbicide alone (Annual bluegrass; herbicide 80 g ai/ha): 100 | Observed Response, Herbicide mixture with Compound 1 (Henbit; [1]): 100 | Observed Response, Herbicide alone (Henbit; herbicide 80 g ai/ha): 100 | Observed Response, Herbicide mixture with Compound 1 (Zoysia grass; [1]): 0 | Observed Response, Herbicide alone (Zoysia grass; herbicide 80 g ai/ha): 25 | Observed Response, Herbicide mixture with Compound 1 (Goosegrass; [1]): 90 | Observed Response, Herbicide alone (Goosegrass; herbicide 80 g ai/ha): 80 | Observed Response, Herbicide mixture with Compound 1 (Venice mallow; [1]): 80 | Observed Response, Herbicide alone (Venice mallow; herbicide 80 g ai/ha): 40 | Observed Response, Herbicide mixture with Compound 1 (Perennial ryegrass; [1]): 50 | Observed Response, Herbicide alone (Perennial ryegrass; herbicide 80 g ai/ha): 80 | Observed Response, Herbicide mixture with Compound 1 (Large crabgrass; [1]): 100 | Observed Response, Herbicide alone (Large crabgrass; herbicide 80 g ai/ha): 100
